# Measurements reported in patent US20090030039A1, “Piperidine Derivatives as Cxcr3 Receptor Antagonists” (priority 2006, published 2009).
# Target: T1, human CXCR3 (Homo sapiens, UniProt P49682)
# T1 construct: expressed in transfected cells; host or cells: CHO cells (membrane preparation)
# T1 sequence (P49682 1-368): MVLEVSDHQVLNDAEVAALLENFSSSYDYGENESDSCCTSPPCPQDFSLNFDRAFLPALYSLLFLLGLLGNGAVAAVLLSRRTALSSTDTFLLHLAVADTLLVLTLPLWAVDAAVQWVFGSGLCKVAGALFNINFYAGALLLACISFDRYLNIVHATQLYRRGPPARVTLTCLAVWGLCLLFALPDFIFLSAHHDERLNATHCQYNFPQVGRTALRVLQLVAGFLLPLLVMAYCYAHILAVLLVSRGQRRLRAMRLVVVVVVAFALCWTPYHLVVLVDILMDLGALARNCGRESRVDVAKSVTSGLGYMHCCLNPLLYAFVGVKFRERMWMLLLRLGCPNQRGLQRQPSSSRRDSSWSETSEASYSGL
# Experiment: [35S]GTPγS exchange assay, CXCR3 receptor inhibition (hI-TAC-induced GTPγS-binding)
# Assay type: biochemical
# Conditions: -log IC50 (molar) inhibiting 50% of specific I-TAC-induced GTPγS-binding; membranes of human CXCR3-transfected CHO cells
# Method: CXCR3 Receptor Inhibition was Examined in a [^35S]GTPγS Exchange Assay
# The exchange of guanosine 5′-[^35S]triphosphate was measured on membranes of human CXCR3-transfected CHO cells. [^35S]GTPγS exchange assays were performed in 96-well plates with 10 μg of membrane protein/well using basic flashplates (Perkin Elmer). Compounds were dissolved in DMSO and diluted with incubation buffer to yield required concentrations with 9% DMSO. Incubation buffer is composed of 20 mM HEPES, 100 mM NaCl, 3 μM GDP and 1 mM MgCl2, pH 7.4. […] Compound, membranes, hI-TAC (interferon-inducible T-cell alpha chemoattractant) and [^35S]GTPγS were added in a total volume of 200 μl. First, 20 μl of the appropriate compound dilution and 140 μl membranes from CXCR3-CHO cells were dissolved in membrane incubation buffer and pre-incubated for 30 minutes at 30° C. Then, 20 μl of hI-TAC dissolved at 30 nM in incubation buffer was added to the membranes and the mixture containing 1% of DMSO was incubated for another 30 minutes at 30° C. […] After 1 minute shaking and 30 minutes incubation at 30° C., flashplates were centrifuged for 5 minutes at 2500 rpm at room temperature. Flashplate bound radioactivity was determined by liquid scintillation counting. Basal GTPγS-binding was measured in 8 wells with membranes incubated in the same volume with 1% DMSO, without I-TAC. Maximal GTPγS-binding was measured in 8 wells with membranes incubated with 1% DMSO and 3 nM I-TAC. […] IC50 values were calculated using non-linear regression in Graphpad Prism.
row,SMILES,pIC50
1,O=C1CCC(c2ccccc2)(C2CCN(Cc3ccc(Cl)c(Cl)c3)CC2)C(=O)N1 (stereo not shown) [Compound 80],5.9
2,O=C1CCC(c2cccc(C(=O)NCCCO)c2)(C2CCN(Cc3ccc(Br)cc3)CC2)C(=O)N1 (stereo not shown) [Compound 91],5.9
3,CCN1C(=O)CCC(c2ccccc2)(C2CCN(Cc3ccc(Br)cc3)CC2)C1=O (stereo not shown) [Compound 126],5.6
4,CC(C)N1C(=O)CCC(c2ccccc2)(C2CCN(Cc3ccc(Br)cc3)CC2)C1=O (stereo not shown) [Compound 127],5.3
5,COCCN1C(=O)CCC(c2ccccc2)(C2CCN(Cc3ccc(Br)cc3)CC2)C1=O (stereo not shown) [Compound 129],5.7

# Same assay, conditions: -log IC50 (molar) inhibiting 50% of specific I-TAC-induced GTPγS-binding; membranes of human CXCR3-transfected CHO cells; read-out: pIC50 (converted)
row,IC50 [nM],SMILES
1,3160,COc1ccc(C2(C3CCN(Cc4ccc(Cl)cc4)CC3)CCC(=O)NC2=O)cc1 (stereo not shown) [Compound 69]
2,2510,O=C1CCC(c2ccccc2)(C2CCN(Cc3ccc(Cl)cc3Cl)CC2)C(=O)N1 (stereo not shown) [Compound 70]
3,2510,O=C1CCC(c2cccc(Cl)c2)(C2CCN(Cc3ccc(Cl)cc3Cl)CC2)C(=O)N1 (stereo not shown) [Compound 71]
4,6310,Cc1cccc(C2(C3CCN(Cc4ccc(Cl)cc4Cl)CC3)CCC(=O)NC2=O)c1 (stereo not shown) [Compound 72]
5,501,O=C1CCC(c2cccc(C(=O)O)c2)(C2CCN(Cc3ccc(Cl)cc3Cl)CC2)C(=O)N1 (stereo not shown) [Compound 73]
6,251,COc1cccc(C2(C3CCN(Cc4ccc(Cl)c(F)c4)CC3)CCC(=O)NC2=O)c1 (stereo not shown) [Compound 79]
7,3980,O=C1CCC(c2cccc(Cl)c2)(C2CCN(Cc3ccc(Cl)c(Cl)c3)CC2)C(=O)N1 (stereo not shown) [Compound 81]
8,3160,Cc1cccc(C2(C3CCN(Cc4ccc(Cl)c(Cl)c4)CC3)CCC(=O)NC2=O)c1 (stereo not shown) [Compound 82]
9,398,O=C1CCC(c2cccc(C(=O)O)c2)(C2CCN(Cc3ccc(Cl)c(Cl)c3)CC2)C(=O)N1 (stereo not shown) [Compound 83]
10,2000,COc1cccc(C2(C3CCN(Cc4ccc(Cl)c(Cl)c4)CC3)CCC(=O)NC2=O)c1 (stereo not shown) [Compound 84]
11,794,O=C1CCC(c2ccc(F)cc2)(C2CCN(Cc3ccc(Cl)c(Cl)c3)CC2)C(=O)N1 (stereo not shown) [Compound 85]
12,1580,O=C1CCC(c2cccc(Cl)c2)(C2CCN(Cc3ccc(Br)cc3)CC2)C(=O)N1 (stereo not shown) [Compound 89]
13,1580,O=C1CCC(c2cccc(C(F)(F)F)c2)(C2CCN(Cc3ccc(Br)cc3)CC2)C(=O)N1 (stereo not shown) [Compound 90]
14,1000,O=C1CCC(c2ccc(F)cc2)(C2CCN(Cc3ccc(Br)cc3)CC2)C(=O)N1 (stereo not shown) [Compound 92]
15,3980,COc1ccc(C2(C3CCN(Cc4ccc(Br)cc4)CC3)CCC(=O)NC2=O)cc1 (stereo not shown) [Compound 93]
16,1580,O=C1CCC(c2cccc(Cl)c2)(C2CCN(Cc3ccc(Br)cc3F)CC2)C(=O)N1 (stereo not shown) [Compound 95]
17,3160,O=C1CCC(c2cccc(C(F)(F)F)c2)(C2CCN(Cc3ccc(Br)cc3F)CC2)C(=O)N1 (stereo not shown) [Compound 96]
18,501,O=C1CCC(c2cccc(C(=O)O)c2)(C2CCN(Cc3ccc(Br)cc3F)CC2)C(=O)N1 (stereo not shown) [Compound 97]
19,398,O=C1CCC(c2cccc(C(=O)O)c2)(C2CCN(Cc3ccc(Br)c(F)c3)CC2)C(=O)N1 (stereo not shown) [Compound 99]
20,3980,O=C1CCC(c2ccc(F)cc2)(C2CCN(Cc3ccc(C(F)(F)F)cc3)CC2)C(=O)N1 (stereo not shown) [Compound 106]
21,3980,COc1ccc(CN2CCC(C3(c4ccccc4)CCC(=O)NC3=O)CC2)cc1 (stereo not shown) [Compound 107]

row,IC50 [nM],SMILES
1,7940,COc1ccc(CN2CCC(C3(c4ccccc4)CCC(=O)NC3=O)CC2)c(OC)c1 (stereo not shown) [Compound 108]
2,7940,O=C1CCC(c2cccc(C(F)(F)F)c2)(C2CCN(Cc3ccc(OC(F)F)cc3)CC2)C(=O)N1 (stereo not shown) [Compound 110]
3,1000,O=C1CCC(c2ccc(F)cc2)(C2CCN(Cc3ccc(OC(F)F)cc3)CC2)C(=O)N1 (stereo not shown) [Compound 111]
4,7940,O=C1CCC(c2cccc(Cl)c2)(C2CCN(Cc3ccc(OC(F)(F)F)cc3)CC2)C(=O)N1 (stereo not shown) [Compound 114]
5,6310,CSc1ccc(CN2CCC(C3(c4cccc(Cl)c4)CCC(=O)NC3=O)CC2)cc1 (stereo not shown) [Compound 117]
6,6310,O=C1CCC(c2ccccc2)(C2CCN(Cc3ccc(OCc4ccccc4)cc3)CC2)C(=O)N1 (stereo not shown) [Compound 119]
7,1580,CN1C(=O)CCC(c2ccccc2)(C2CCN(Cc3ccc(Cl)cc3)CC2)C1=O (stereo not shown) [Compound 120]
8,6310,COC(=O)CCN1C(=O)CCC(c2ccccc2)(C2CCN(Cc3ccc(Cl)cc3)CC2)C1=O (stereo not shown) [Compound 121]
9,5010,CN1C(=O)CCC(c2ccccc2)(C2CCN(Cc3ccc(Cl)c(Cl)c3)CC2)C1=O (stereo not shown) [Compound 122]
10,1000,COC(=O)CCN1C(=O)CCC(c2ccccc2)(C2CCN(Cc3ccc(Cl)cc3Cl)CC2)C1=O (stereo not shown) [Compound 124]
11,3980,CCCN1C(=O)CCC(c2ccccc2)(C2CCN(Cc3ccc(Br)cc3)CC2)C1=O (stereo not shown) [Compound 128]
12,3980,COC(=O)CCN1C(=O)CCC(c2ccccc2)(C2CCN(Cc3ccc(Br)cc3)CC2)C1=O (stereo not shown) [Compound 130]
13,3980,CN1C(=O)CCC(c2ccccc2)(C2CCN(Cc3ccc(C(F)(F)F)cc3)CC2)C1=O (stereo not shown) [Compound 131]
14,631,COC(=O)CCN1C(=O)CCC(c2ccccc2)(C2CCN(Cc3ccc(C(F)(F)F)cc3)CC2)C1=O (stereo not shown) [Compound 132]
15,1580,O=C1CCC(c2ccccc2)(C2CCN(Cc3ccc(F)cc3)CC2)CN1 (stereo not shown) [Compound 133]
16,3980,O=C1CCC(c2ccc(F)cc2)(C2CCN(Cc3ccc(F)c(Cl)c3)CC2)CN1 (stereo not shown) [Compound 134]
17,1000,O=C1CCC(c2ccccc2)(C2CCN(Cc3ccc(Cl)cc3)CC2)CN1 (stereo not shown) [Compound 135]
18,794,O=C1CCC(c2ccc(F)cc2)(C2CCN(Cc3ccc(Cl)cc3)CC2)CN1 (stereo not shown) [Compound 136]
19,631,O=C1CCC(c2ccccc2)(C2CCN(Cc3ccc(Cl)cc3Cl)CC2)CN1 (stereo not shown) [Compound 137]
20,1580,O=C1CCC(c2ccc(F)cc2)(C2CCN(Cc3ccc(Cl)cc3Cl)CC2)CN1 (stereo not shown) [Compound 138]

row,SMILES,IC50 [nM]
1,COc1cccc(C2(C3CCN(Cc4ccc(Cl)cc4Cl)CC3)CCC(=O)NC2=O)c1 (stereo not shown) [Compound 74],3980
2,O=C1CCC(c2ccc(F)cc2)(C2CCN(Cc3ccc(Cl)cc3Cl)CC2)C(=O)N1 (stereo not shown) [Compound 75],2510
3,O=C1CCC(c2cccc(Cl)c2)(C2CCN(Cc3ccc(Cl)c(F)c3)CC2)C(=O)N1 (stereo not shown) [Compound 77],794
4,Cc1cccc(C2(C3CCN(Cc4ccc(Cl)c(F)c4)CC3)CCC(=O)NC2=O)c1 (stereo not shown) [Compound 78],794
5,O=C1CCC(c2ccccc2)(C2CCN(Cc3ccc(Br)cc3F)CC2)C(=O)N1 (stereo not shown) [Compound 94],501
6,O=C1CCC(c2ccc(F)cc2)(C2CCN(Cc3ccc(Br)cc3F)CC2)C(=O)N1 (stereo not shown) [Compound 98],631
7,Cc1ccc(CN2CCC(C3(c4cccc(C)c4)CCC(=O)NC3=O)CC2)cc1 (stereo not shown) [Compound 101],2510
8,O=C1CCC(c2ccccc2)(C2CCN(Cc3ccc(C(F)(F)F)cc3)CC2)C(=O)N1 (stereo not shown) [Compound 102],3980
9,O=C1CCC(c2cccc(Cl)c2)(C2CCN(Cc3ccc(C(F)(F)F)cc3)CC2)C(=O)N1 (stereo not shown) [Compound 103],3980
10,Cc1cccc(C2(C3CCN(Cc4ccc(C(F)(F)F)cc4)CC3)CCC(=O)NC2=O)c1 (stereo not shown) [Compound 104],3980
11,O=C1CCC(c2ccccc2)(C2CCN(Cc3ccc(OC(F)F)cc3)CC2)C(=O)N1 (stereo not shown) [Compound 109],1000
12,O=C1CCC(c2ccccc2)(C2CCN(Cc3ccc(OC(F)(F)F)cc3)CC2)C(=O)N1 (stereo not shown) [Compound 112],1000
13,O=C1CCC(c2ccc(F)cc2)(C2CCN(Cc3ccc(OC(F)(F)F)cc3)CC2)C(=O)N1 (stereo not shown) [Compound 113],5010
14,CSc1ccc(CN2CCC(C3(c4ccccc4)CCC(=O)NC3=O)CC2)cc1 (stereo not shown) [Compound 116],5010

# Same assay, conditions: pIC50, -log IC50 (molar) inhibiting 50% of specific I-TAC-induced GTPγS-binding; membranes of human CXCR3-transfected CHO cells
row,SMILES,IC50 [nM]
1,O=C1CCC(c2ccccc2)(C2CCN(Cc3ccc(Cl)c(C(F)(F)F)c3)CC2)C(=O)N1 (stereo not shown) [Compound 86],2000
2,O=C1CCC(c2ccccc2)(C2CCN(Cc3ccc(Br)cc3)CC2)C(=O)N1 (stereo not shown) [Compound 87],794
3,O=C1CCC(c2ccccc2)(C2CCN(Cc3ccc(Br)cc3)CC2)C(=O)N1 (stereo not shown) [Compound 88],1260

# Same assay, conditions: read-out: pIC50 (converted)
row,IC50 [nM],SMILES
1,316,O=C1CCC(c2ccccc2)(C2CCN(Cc3ccc(Cl)c(F)c3)CC2)C(=O)N1 (stereo not shown) [Compound 76]
